Source: the NIST ThermoML archive (doi:10.1021/je1005054)
± gives the expanded uncertainty stated by the source.

Conditions: Liquid, Calculated from knudsen effusion weight loss

- vapor or sublimation pressure (343 K): 0.0263 ± 0.0041 kPa
- vapor or sublimation pressure (347.9 K): 0.0372 ± 0.006 kPa
- vapor or sublimation pressure (348 K): 0.0374 ± 0.006 kPa
- vapor or sublimation pressure (352.9 K): 0.0523 ± 0.0086 kPa
- vapor or sublimation pressure (353 K): 0.0527 ± 0.0087 kPa
Compound: O=C1CCCCCN1 [1-aza-2-cycloheptanone]
